Laboratory results from article PMC9231089, “Sorafenib Chemosensitization by Caryophyllane Sesquiterpenes in Liver, Biliary, and Pancreatic Cancer Cells: The Role of STAT3/ABC Transporter Axis” (Pharmaceutics, 2022).
Structures can show the parent of a compound that is named as a salt.

What was measured:
[1] = test system: Mz-ChA-1; assay: MTT cytotoxicity assay, substances alone, Mz-ChA-1; assay type: cell-based, human; details: for IC50: Homo sapiens, substance alone, 4 h exposure + 72 h recovery
Method: (§1) Suitable vehicle controls were also included.
(§2) The effect of the treatments on cell viability was measured by the MTT assay as previously described. A higher than 30% reduction of cell viability was considered as a significant cytotoxic effect.

[2] = test system: noncancerous H69 cholangiocytes; assay: MTT cytotoxicity assay (tolerability), substances alone, H69; assay type: cell-based, human; details: for higher cytotoxicity in normal H69 cells than in cancerous Mz-ChA-1 cholangiocytes (IC50 comparison): H69 vs Mz-ChA-1; for CC50: Homo sapiens, H69 noncancerous cholangiocytes, substance alone, 4 h exposure + 72 h recovery, read-out: IC50 (CL)
Method: as §1, §2

[3] = test system: MRP1; assay: Immunofluorescence analysis in Bx-PC3 cells, MRP1; assay type: cell-based, human; details: substance alone, 10 µg/mL
Method: as §1
(§3) The analysis was performed according to previously published methods. Confluent cells were seeded in 24-well plates (2 × 10^4 cells/well), allowed to adhere overnight, then treated as described above. After treatment, cells were fixed in pure methanol and washed with 4% bovine serum albumin (BSA) and PBS + Tween 20 (PBS-T) for 1 h. […] The expression and localization of Pgp, MRP1, and MRP2 pumps into cells were analyzed by using a Cytation 1 Cell Imaging Multimode Reader (Biotech, USA).

[4] = test system: Bx-PC3 cells; assay: Wound healing assay (cell migration); assay type: cell-based, human
Method: To evaluate the effect of caryophyllane sesquiterpenes, both alone and in combination with sorafenib, on the cell migration rate, the wound healing assay was performed. Bx-PC3 cells were seeded in 24-well plate at a density of 2.5 × 10^5 cells/well. After 24 h, the wound was created by scratching the well bottom with a 100 μL pipette tip, then the cells were treated under the scheduled conditions and images were captured at 0, 4, and 72 h using a Cytation 1 Cell Imaging Multi-Mode Reader. […] Results were expressed as wound area percentage with respect to that of the same well at zero time. The positive controls were also included.

[5] = test system: phospho(Tyr705)-STAT3; assay: Western blotting of STAT3 phosphorylation in Bx-PC3 cells; assay type: cell-based, human; details: for increase of STAT3 phosphorylation at tyrosine 705: substance alone, sorafenib and sesquiterpenes 10 μg/mL, verapamil/MK571 1 μg/mL, normalized to total STAT3
Method: as §1
Confluent cells were seeded in 6-well plates (5 × 10^5 cells/well), treated as described above, then harvested by centrifugation and washed in PBS. After lysis with a suitable buffer, the Western blotting analysis was carried out, according to previously published methods. […] The levels of phospho(Tyr705)-STAT3 were normalized against total STAT3 ones.

[6] = test system: MRP1; assay: RT-qPCR gene expression in Bx-PC3 cells, MRP1; assay type: cell-based, human; details: substance alone
Excerpt: as §1

[7] = test system: HepG2; assay: MTT cytotoxicity assay, substances alone, HepG2; assay type: cell-based, human
Method: as §1, §2

[8] = test system: Bx-PC3; assay: MTT cytotoxicity assay, substances alone, Bx-PC3; assay type: cell-based, human; details: for IC50: Homo sapiens, BXPC-3, substance alone, 4 h exposure + 72 h recovery
Method: as §1, §2

[9] = test system: MRP2; assay: RT-qPCR gene expression in Bx-PC3 cells, MRP2; details: substance alone
Method: (§5) Confluent cells were treated with the test substances, both alone or in combination with the anticancer drug, for 4 h, then washed and incubated for a further 72 h (Figure 1), according to previously published protocols [20]. […] Suitable vehicle controls were also included.
(§6) The results of mRNA abundance for the targeted genes in each sample were normalized on the basis of GAPDH (Bio-Rad, Hercules, CA, USA) mRNA. Data are expressed as 2^−ΔCt, calculated using the CFX Manager software (Bio-Rad).

[10] = test system: MDR1; assay: RT-qPCR gene expression in Bx-PC3 cells, MDR1; details: substance alone, 4 h exposure + 72 h recovery
Method: as §5, §6

[11] = test system: Pgp; assay: Immunofluorescence analysis in Bx-PC3 cells, Pgp; assay type: cell-based, human; details: substance alone, sorafenib and sesquiterpenes 10 µg/mL, verapamil 1 µg/mL
Method: as §1, §3

[12] = test system: MRP2; assay: Immunofluorescence analysis in Bx-PC3 cells, MRP2; assay type: cell-based, human; details: substance alone
Method: as §1, §3

[13] = test system: noncancerous H69 cholangiocytes; assay: Combination assay with sorafenib (MTT), tolerability in H69; assay type: cell-based, human; details: combination with 1 µg/mL and 10 µg/mL sorafenib, verapamil/MK571 1 µg/mL
Method: as §1
(§4) The type of interaction (synergistic, additive, or antagonistic) among sorafenib and test substances or positive controls was evaluated by measuring the reversal ratio value (RR), combination index (CI), and isobolographic analysis (IB), as previously described.

[14] = test system: Mz-ChA-1; assay: Combination assay with sorafenib (MTT), Mz-ChA-1; assay type: cell-based, human;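 as to increase of sorafenib cytotoxicity in combination: percent increase of sorafenib cell viability inhibition versus sorafenib alone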
Method: as §1, §4

[15] = test system: HepG2; assay: Combination assay with sorafenib (MTT), HepG2; assay type: cell-based, human; details: for increase of sorafenib cytotoxicity in combination: verapamil/MK571 1 µg/mL or sesquiterpenes 10 µg/mL;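 as to increase of sorafenib cytotoxicity in combination: percent increase of sorafenib cell viability inhibition versus sorafenib alone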
Method: as §1, §4

[16] = test system: Bx-PC3; assay: Combination assay with sorafenib (MTT), Bx-PC3; assay type: cell-based, human;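 as to increase of sorafenib cytotoxicity in combination: percent increase of sorafenib cell viability inhibition versus sorafenib alone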
Method: as §1, §4

With CNC(=O)c1cc(Oc2ccc(NC(=O)Nc3ccc(Cl)c(C(F)(F)F)c3)cc2)ccn1 [Sorafenib, sorafenib tosylate] the IC50 ([1]; Mz-ChA-1) was 76.1 µg/mL, the “inhibition of cell viability” value ([1]; Mz-ChA-1, 50 µg/mL) was “about 30%” and the “inhibition of cell viability” value ([1]; Mz-ChA-1, 250 µg/mL) was “about 90%”. For the same molecule, the “IC50 higher with respect to Bx-PC3 cells” value ([1]; Mz-ChA-1 vs Bx-PC3) was ~2.4 fold, the “higher cytotoxicity in normal H69 cells than in cancerous Mz-ChA-1 cholangiocytes (IC50 comparison)” value [2] was “approximately 1.5 fold” and the CC50 [2] was 50.3 µg/mL. For the same molecule, the “lowering of MRP1 expression compared to control (immunofluorescence)” value [3] was 1.2 fold, the “change of wound area after 4 h” value ([4]; sorafenib 10 µg/mL alone) was “slight reduction” and the “increase of wound area at 72 h” value ([4]; sorafenib 10 µg/mL alone) was 1.2 fold. The “increase of STAT3 phosphorylation at tyrosine 705” value [5] was 4.6 fold, the “decrease of MRP1 gene expression” value [6] was ~2 fold and the “inhibition of cell viability” value ([7]; HepG2, 10 µg/mL) was “approximately 10%”. The “inhibition of cell viability” value ([7]; HepG2, 500 µg/mL) was 95%, the “IC50 higher with respect to Bx-PC3 cells” value ([7]; HepG2 vs Bx-PC3) was “approximately 1.5 fold” and the “inhibition of cell viability” value ([8]; 50 µg/mL) was 70%. The IC50 [8] was 31 µg/mL, the “cell viability at the higher tested concentrations” value ([8]; concentrations higher than 50 µg/mL) was “almost completely inhibited” and the “decrease of MRP2 gene expression” value [9] was ~2 fold. For the same molecule, the “increase of MDR1 gene expression with respect to control” value [10] was 3.6 fold, the “effect on Pgp expression (immunofluorescence)” value [11] was “slight increase” and the “effect on MRP2 transporter expression (immunofluorescence)” value [12] was “significantly lowered”.
In the case of CN(C)C(=O)CCSC(SCCC(=O)O)c1cccc(/C=C/c2ccc3ccc(Cl)cc3n2)c1 (stereo not drawn) [MK571, reference compound], the IC50 ([1]; Mz-ChA-1) is reported as 94.6 µg/mL, the “IC50 higher than that of sorafenib” value ([1]; Mz-ChA-1) is reported as 1.2 fold and the “inhibition of cell viability” value ([1]; Mz-ChA-1, 50 µg/mL) is reported as “approximately 15%”. For the same molecule, the “inhibition of cell viability” value ([1]; Mz-ChA-1, 250 µg/mL) was ~90%, the “higher cytotoxicity in normal H69 cells than in cancerous Mz-ChA-1 cholangiocytes (IC50 comparison)” value [2] was ~2.9 fold and the CC50 [2] was 32.6 µg/mL. The “reduction of cell viability with respect to sorafenib alone” value [13] was ~15%, the “wound area / cell migration after 72 h” value ([4]; substance alone, sesquiterpenes 10 µg/mL, verapamil/MK571 1 µg/mL) was “almost complete closure of wound area” and the “increase of wound area” value ([4]; substance in combination with sorafenib 10 µg/mL, reference and time not stated) was “approximately 3.7 fold”. The “reduction of sorafenib IC50 in the presence of the substance” value (“reduction of sorafenib IC50” for short) [14] was 1.7 fold, the “increase of sorafenib cytotoxicity in combination” value (from here on “increase of sorafenib cytotoxicity”) ([14]; sorafenib 1 µg/mL, verapamil/MK571 1 µg/mL) was 3% and the “increase of sorafenib cytotoxicity” value ([14]; sorafenib 10 µg/mL, verapamil/MK571 1 µg/mL or sesquiterpenes 10 µg/mL) was 20%. The “increase of STAT3 phosphorylation at tyrosine 705” value [5] was 1.5 fold, the “reduction of phospho(Tyr705)-STAT3 with respect to sorafenib” value ([5]; substance in combination with sorafenib 10 μg/mL) was 3.7 fold and the “reduction of sorafenib IC50” value [15] was ~6 fold. For the same molecule, the “increase of sorafenib cytotoxicity” value ([15]; sorafenib 1 µg/mL) was ~23%, the “increase of sorafenib cytotoxicity” value ([15]; sorafenib 10 µg/mL) was ~40% and the “IC50 higher than that of sorafenib” value ([7]; HepG2) was “comparable”. For the same molecule, the “inhibition of cell viability” value ([7]; HepG2, 50 µg/mL) was 50%, the “IC50 higher than that of sorafenib” value [8] was 2.5 fold and the “inhibition of cell viability” value ([8]; 50 µg/mL) was ~33%. The “inhibition of cell viability” value ([8]; 250 µg/mL) was ~90%, the IC50 [8] was 78.5 µg/mL and the “reduction of sorafenib IC50” value [16] was ~3.9 fold. The “increase of sorafenib cytotoxicity” value ([16]; sorafenib 1 µg/mL, verapamil/MK571 1 µg/mL or sesquiterpenes 10 µg/mL) was ~10%, the “increase of sorafenib cytotoxicity” value ([16]; sorafenib 10 µg/mL, verapamil/MK571 1 µg/mL) was ~47% and the “effect on MRP2 transporter expression (immunofluorescence)” value [12] was “significantly lowered”.
